According to US20250325552A1, “SUBSTITUTED THIADIAZOLYL DERIVATIVES AS DNA POLYMERASE THETA INHIBITORS” (IDEAYA Biosciences, Inc., priority 2020, published 2025):

What follows are compounds tested against Polθ theta (1-899) (hPolQ) (Homo sapiens (Human), UniProt O75417) (assay: Biological Assay 1: Polθ ATPase activity, NADH oxidation-coupled enzymatic assay (10 nM enzyme, 30 min)). Conditions: Polθ (1-899) 10 nM, 100 μM ATP, 300 nM dT50 ssDNA; Examples 1 to 268; read-out: ATPase NADH coupling:Standard Screening:hPolQ IC50.
Type: biochemical
Experimental: The ability of the compounds of Formula (I), (II), (III), (IV), or Table 1 (Examples 1 to Example 268) to inhibit ATPase activity of Polθ theta (1-899) was determined using the assay described below.
Polθ Theta ATPase activity was determined by measuring the rate of ATP turn over in a NADH oxidation-coupled enzymatic assay. 10-point dilution series of compounds were used in a 384 well format for the inhibition assays. Polθ theta (1-899) (10 nM) in assay buffer (20 mM Tris HCl (pH 7.80), 80 mM KCl, 10 mM MgCl2, 1 mM DTT, 0.01% BSA, 0.01% Tween, 5% glycerol) was transferred to the test wells (20 μL), except the low control wells (20 μL of assay buffer was added to the low control wells). The plate was then incubated at room temperature for 15 min. An equal volume (20 μL) of 100 μM ATP, 300 nM dT50 (single-stranded DNA (ssDNA) containing 50 thymine bases), 300 μM NADH, 6 mM PEP, 10 U/mL lactate dehydrogenase and U/mL pyruvate kinase in assay buffer was added to all the test wells. The plate was then centrifuged at 1000 rpm for 1 min. The reaction was monitored for 30 min by measuring absorbance (λ=340 nm) in a Tecan Spark multimode plate reader every minute. The high control (DMSO with enzyme) with low absorbance intensity represents no inhibition of ATPase reaction while the low control (DMSO with buffer) with high absorbance intensity represents full inhibition of ATPase activity. Slope of the reaction progress curves were used to calculate the rate of ATP hydrolysis. The rates were used to determine the percent inhibition using a four-parameter inhibition model to generate IC50, Hill slope and max inhibition.

Polθ theta (1-899) (hPolQ), sequence (O75417 1-899): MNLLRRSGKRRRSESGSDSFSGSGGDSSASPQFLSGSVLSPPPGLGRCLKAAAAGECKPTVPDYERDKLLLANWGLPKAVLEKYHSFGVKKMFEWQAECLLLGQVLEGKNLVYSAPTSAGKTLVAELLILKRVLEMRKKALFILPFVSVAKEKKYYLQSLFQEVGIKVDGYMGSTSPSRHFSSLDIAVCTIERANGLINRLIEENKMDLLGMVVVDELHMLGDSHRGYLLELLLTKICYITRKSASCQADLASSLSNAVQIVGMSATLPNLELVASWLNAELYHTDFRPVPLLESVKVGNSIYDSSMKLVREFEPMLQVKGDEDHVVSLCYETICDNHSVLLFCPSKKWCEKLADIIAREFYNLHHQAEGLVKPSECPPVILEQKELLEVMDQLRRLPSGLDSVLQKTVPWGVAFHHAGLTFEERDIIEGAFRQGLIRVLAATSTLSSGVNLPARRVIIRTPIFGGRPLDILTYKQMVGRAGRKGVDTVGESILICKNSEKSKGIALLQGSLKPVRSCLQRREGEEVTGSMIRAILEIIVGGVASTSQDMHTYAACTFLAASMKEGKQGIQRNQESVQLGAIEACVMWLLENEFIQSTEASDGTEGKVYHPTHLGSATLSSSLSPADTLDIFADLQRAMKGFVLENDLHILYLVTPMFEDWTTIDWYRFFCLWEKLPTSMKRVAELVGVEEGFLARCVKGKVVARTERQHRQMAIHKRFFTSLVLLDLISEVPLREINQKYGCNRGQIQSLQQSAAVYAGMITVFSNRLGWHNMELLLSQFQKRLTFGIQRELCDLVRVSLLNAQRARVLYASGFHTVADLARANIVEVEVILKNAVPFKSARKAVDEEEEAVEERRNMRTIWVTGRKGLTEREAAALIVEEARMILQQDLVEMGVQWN

Compound | IC50 [µM]
COc1cccc(F)c1-c1cc(C)ncc1C(=O)Nc1nnc(OCc2ccc(C(C)O)cn2)s1 (racemic) [Example 22, 4-(2-fluoro-6-methoxyphenyl)-N-(5-((5-(1-hydroxyethyl)pyridin-2-yl)methoxy)-1,3,4-thiadiazol-2-yl)-6-methylnicotinamide] | ≤ 0.2
COc1cccc(F)c1-c1cc(C)ncc1C(=O)Nc1nnc(OCc2ccc(S(C)(=N)=O)cc2)s1 (racemic) [Example 79, 4-(2-fluoro-6-methoxyphenyl)-6-methyl-N-(5-((4-(S-methylsulfonimidoyl)benzyl)oxy)-1,3,4-thiadiazol-2-yl)nicotinamide] | ≤ 0.2
COc1cccc(F)c1-c1cc(C)ncc1C(=O)Nc1nnc(OCc2ccc3c(n2)CCCC3O)s1 (racemic) [Example 92, 4-(2-fluoro-6-methoxyphenyl)-N-(5-((5-hydroxy-5,6,7,8-tetrahydroquinolin-2-yl)methoxy)-1,3,4-thiadiazol-2-yl)-6-methylnicotinamide] | ≤ 0.2
COc1cnc(Cl)cc1-c1cc(C)ncc1C(=O)Nc1nnc(OCC2CCO2)s1 (racemic) [Example 165, 2′-chloro-5′-methoxy-6-methyl-N-(5-(oxetan-2-ylmethoxy)-1,3,4-thiadiazol-2-yl)-(4,4′-bipyridine)-3-carboxamide] | ≤ 0.2
COc1cnc(Cl)cc1-c1cc(C)ncc1C(=O)Nc1nnc(OCC2CCOC2)s1 (racemic) [Example 167, 2′-chloro-5′-methoxy-6-methyl-N-(5-((tetrahydrofuran-3-yl)methoxy)-1,3,4-thiadiazol-2-yl)-(4,4′-bipyridine)-3-carboxamide] | ≤ 0.2
COc1cnc(Cl)cc1-c1cc(C)ncc1C(=O)Nc1nnc(OCC2CCNC2)s1 (racemic) [Example 175, 2′-chloro-5′-methoxy-6-methyl-N-(5-(pyrrolidin-3-ylmethoxy)-1,3,4-thiadiazol-2-yl)-(4,4′-bipyridine)-3-carboxamide] | ≤ 0.2
COc1cnc(Cl)cc1-c1cc(C)ncc1C(=O)Nc1nnc(OC[C@@H]2CO[C@H](CO)CO2)s1 (racemic) [Example 237, rel-2′-chloro-N-(5-(((2s,5r)-5-(hydroxymethyl)-1,4-dioxan-2-yl)methoxy)-1,3,4-thiadiazol-2-yl)-5′-methoxy-6-methyl-(4,4′-bipyridine)-3-carboxamide] | ≤ 0.2
COc1cnc(Cl)cc1-c1cc(C)ncc1C(=O)Nc1nnc(OC[C@@H]2CO[C@@H](CO)CO2)s1 (racemic) [Example 238, rel-2′-chloro-N-(5-(((2s,5s)-5-(hydroxymethyl)-1,4-dioxan-2-yl)methoxy)-1,3,4-thiadiazol-2-yl)-5′-methoxy-6-methyl-(4,4′-bipyridine)-3-carboxamide] | ≤ 0.2
Cc1cc(-c2cc(Cl)ncc2OC(F)F)c(C(=O)Nc2nnc(OCC3CCOC3)s2)cn1 (racemic) [Example 259, 2′-chloro-5′-(difluoromethoxy)-6-methyl-N-(5-((tetrahydrofuran-3-yl)methoxy)-1,3,4-thiadiazol-2-yl)-(4,4′-bipyridine)-3-carboxamide] | ≤ 0.2
COc1cnc(Br)cc1-c1cc(C)ncc1C(=O)Nc1nnc(OCC2CCOC2)s1 (racemic) [Example 260, 2′-bromo-5′-methoxy-6-methyl-N-(5-((tetrahydrofuran-3-yl)methoxy)-1,3,4-thiadiazol-2-yl)-(4,4′-bipyridine)-3-carboxamide] | ≤ 0.2
COc1cnc(Cl)cc1-c1cc(C)ncc1C(=O)Nc1nnc(OC[C@]2(C)CCOC2)s1 (single isomer, unassigned) [Example 160] | ≤ 0.2
COc1cnc(Cl)cc1-c1cc(C)ncc1C(=O)Nc1nnc(OC[C@@]2(C)CCOC2)s1 (single isomer, unassigned) [Example 161] | ≤ 0.2
COc1cnc(Cl)cc1-c1cc(C)ncc1C(=O)Nc1nnc(OC[C@@H]2CCO2)s1 (single isomer, unassigned) [Example 169] | ≤ 0.2
COc1cnc(Cl)cc1-c1cc(C)ncc1C(=O)Nc1nnc(OC[C@@H]2CCO[C@@H]2C)s1 (single isomer, unassigned) [Example 179] | ≤ 0.2
COc1cnc(Cl)cc1-c1cc(C)ncc1C(=O)Nc1nnc(OC[C@@H]2CCO[C@H]2C)s1 (single isomer, unassigned) [Example 180] | ≤ 0.2
COc1cnc(Cl)cc1-c1cc(C)ncc1C(=O)Nc1nnc(OC[C@H]2CCO[C@H]2C)s1 (single isomer, unassigned) [Example 181] | ≤ 0.2
COc1cnc(Cl)cc1-c1cc(C)ncc1C(=O)Nc1nnc(OC[C@H]2CCO[C@@H]2C)s1 (single isomer, unassigned) [Example 182] | ≤ 0.2
COc1cnc(Cl)cc1-c1cc(C)ncc1C(=O)Nc1nnc(OC[C@H]2CCOC2(C)C)s1 (single isomer, unassigned) [Example 190] | ≤ 0.2
COc1cnc(Cl)cc1-c1cc(C)ncc1C(=O)Nc1nnc(OC[C@@H]2CCOC2(C)C)s1 (single isomer, unassigned) [Example 191] | ≤ 0.2
COc1cnc(Cl)cc1-c1cc(C)ncc1C(=O)Nc1nnc(OC[C@H]2CC[C@H](O)C2)s1 (single isomer, unassigned) [Example 208] | ≤ 0.2

Compound | IC50 [µM]
COc1cnc(Cl)cc1-c1cc(C)ncc1C(=O)Nc1nnc(OC[C@@H]2CC[C@@H](O)C2)s1 (single isomer, unassigned) [Example 209] | ≤ 0.2
COc1cnc(Cl)cc1-c1cc(C)ncc1C(=O)Nc1nnc(OC[C@H]2CC[C@@H](O)C2)s1 (single isomer, unassigned) [Example 210] | ≤ 0.2
COc1cnc(Cl)cc1-c1cc(C)ncc1C(=O)Nc1nnc(OC[C@@H]2CC[C@H](O)C2)s1 (single isomer, unassigned) [Example 211] | ≤ 0.2
COc1cnc(Cl)cc1-c1cc(C)ncc1C(=O)Nc1nnc(OC[C@@H]2COCC(C)(C)O2)s1 (single isomer, unassigned) [Example 220] | ≤ 0.2
COc1cnc(Cl)cc1-c1cc(C)ncc1C(=O)Nc1nnc(OC[C@H]2COCC(C)(C)O2)s1 (single isomer, unassigned) [Example 221] | ≤ 0.2
COc1cnc(Cl)cc1-c1cc(C)ncc1C(=O)Nc1nnc(OC[C@@H]2COC(C)(C)CO2)s1 (single isomer, unassigned) [Example 222] | ≤ 0.2
COc1cnc(Cl)cc1-c1cc(C)ncc1C(=O)Nc1nnc(OC[C@H]2COC(C)(C)CO2)s1 (single isomer, unassigned) [Example 223] | ≤ 0.2
COc1cnc(Cl)cc1-c1cc(C)ncc1C(=O)Nc1nnc(OC[C@@H]2COC3(CCC3)C2)s1 (single isomer, unassigned) [Example 226] | ≤ 0.2
COc1cnc(Cl)cc1-c1cc(C)ncc1C(=O)Nc1nnc(OC[C@H]2COC3(CCC3)C2)s1 (single isomer, unassigned) [Example 227] | ≤ 0.2
COc1cnc(Cl)cc1-c1cc(C)ncc1C(=O)Nc1nnc(OC[C@@]23COC[C@@H]2C3)s1 (single isomer, unassigned) [Example 230] | ≤ 0.2
COc1cnc(Cl)cc1-c1cc(C)ncc1C(=O)Nc1nnc(OC[C@]23COC[C@H]2C3)s1 (single isomer, unassigned) [Example 231] | ≤ 0.2
COc1cnc(Br)cc1-c1cc(C)ncc1C(=O)Nc1nnc(OC[C@H]2CCOC2)s1 (single isomer, unassigned) [Example 244] | ≤ 0.2
COc1cnc(Br)cc1-c1cc(C)ncc1C(=O)Nc1nnc(OC[C@@H]2CCOC2)s1 (single isomer, unassigned) [Example 245] | ≤ 0.2
COc1cnc(Cl)cc1-c1cc(C)ncc1C(=O)Nc1nnc(OC[C@H]2CO[C@@H](C)C2)s1 (single isomer, unassigned) [Example 251] | ≤ 0.2
COc1cnc(Cl)cc1-c1cc(C)ncc1C(=O)Nc1nnc(OC[C@H]2CO[C@H](C)C2)s1 (single isomer, unassigned) [Example 252] | ≤ 0.2
COc1cnc(Cl)cc1-c1cc(C)ncc1C(=O)Nc1nnc(OC[C@@H]2CO[C@H](C)C2)s1 (single isomer, unassigned) [Example 253] | ≤ 0.2
COc1cnc(Cl)cc1-c1cc(C)ncc1C(=O)Nc1nnc(OC[C@@H]2CO[C@@H](C)C2)s1 (single isomer, unassigned) [Example 254] | ≤ 0.2
COc1cnc(Cl)cc1-c1cc(C)ncc1C(=O)Nc1nnc(OC[C@@H]2CCC[C@H]2O)s1 (single isomer, unassigned) [Example 255, 2′-chloro-N-(5-((2-hydroxycyclopentyl)methoxy)-1,3,4-thiadiazol-2-yl)-5′-methoxy-6-methyl-(4,4′-bipyridine)-3-carboxamide] | ≤ 0.2
COc1cnc(Cl)cc1-c1cc(C)ncc1C(=O)Nc1nnc(OC[C@H]2CCC[C@@H]2O)s1 (single isomer, unassigned) [Example 256, 2′-chloro-N-(5-((2-hydroxycyclopentyl)methoxy)-1,3,4-thiadiazol-2-yl)-5′-methoxy-6-methyl-(4,4′-bipyridine)-3-carboxamide] | ≤ 0.2
